Key:
[1] = Example 2: open-label dose-escalation pharmacokinetic and safety study in children and adolescents with ADHD; format: in vivo, human; details: for AUC(0-inf) / Cmax / Tmax / half-life / AUC(0-t) / Vd/F: both sexes, human, plasma; for Vd/F: read-out: Vz/F
Description: Objective: The objective of this study was to assess the pharmacokinetics of controlled-release guanfacine after a single 2 mg dose or multiple doses of 2 mg and 4 mg from Table 2.
Methods: An open-label, dose-escalation study in male and female children (aged 6-12 years) and adolescents (aged 13-17 years) with ADHD. Subjects weighed 25 kg (55 lb) or more but were not considered overweight in the opinion of the investigator. Their electrocardiogram readings (ECGs) were within normal ranges, and their blood pressure measurements were within the 95th percentile for their age, height, and gender. […] Informed consent was given by the patient's parent or guardian.
[…] The dose was then titrated down to 3 mg on days 30 to 32, and 2 mg on days 33 to 35. Pharmacokinetic assessments were made after the single 2 mg dose and after 6 days of repeated 2 mg and 4 mg doses.

[2] = Example 4: Phase I single-dose crossover bioequivalence study, 2.5 mg versus 2 mg tablets, healthy adult volunteers; format: in vivo, human; details: for AUC(0-t): AUC0-last; for Vd/F: Vz/F
Description: Objectives: The objective of this study was to investigate the bioequivalence of guanfacine 2.5 mg tablets versus guanfacine 2 mg tablets.
Methods: This Phase I study utilized a randomized, open-label, single-dose, three-treatment crossover design. Forty-eight (48) healthy adult volunteers completed the study. All subjects were randomly assigned to one of 6 treatment sequences and received a 2 mg and 2.5 mg tablet of guanfacine. During treatment periods 1-3, subjects received their assigned treatment (a single oral dose 2 mg or 2.5 mg after an overnight fast).

[3] = po, 2 mg, single 2 mg oral dose, Day 1, adolescents 13-17 yrs, ADHD patients, N = 14
[4] = po, 2 mg, single 2 mg oral dose, Day 1, children 6-12 yrs, ADHD patients, N = 14
[5] = single 2 mg oral dose, Day 1, adolescents 13-17 yrs, ADHD patients, N = 14
[6] = single 2 mg oral dose, Day 1, children 6-12 yrs, ADHD patients, N = 14

Q: Which results are given for N=C(N)NC(=O)Cc1c(Cl)cccc1Cl [guanfacine]?
A: AUC(0-inf) ([1]; oral, 2 mg, dose of 2 mg of guanfacine, fasted patients ages 13-17 suffering from ADHD, read-out: AUC∞): ~47.2 ng·h/mL; Cmax ([1]; oral, 2 mg, dose of 2 mg of guanfacine, fasted patients ages 13-17 suffering from ADHD, read-out: mean Cmax): ~1.69 ng/mL; Tmax ([1]; oral, 2 mg, dose of 2 mg of guanfacine, fasted patients ages 13-17 suffering from ADHD, read-out: median Tmax): ~5 h; half-life ([1]; oral, 2 mg, measured for the 2 mg formulation, fasted patients ages 6-12 suffering from ADHD): 864 ± 144 min; half-life ([1]; oral, 2 mg, measured for the 2 mg formulation, fasted patients ages 13-17 suffering from ADHD): 1070 ± 348 min; AUC(0-t) ([1]; po, 2 mg, Day 14, 2 mg once daily oral, adolescents 13-17 yrs, ADHD patients, N = 14, read-out: AUC0-24): 48.2 ± 16.1 ng·h/mL; Cmax ([1]; po, 2 mg, Day 14, 2 mg once daily oral, adolescents 13-17 yrs, ADHD patients, N = 14, read-out: Cmax): 2.86 ± 0.77 ng/mL; Tmax ([1]; po, 2 mg, Day 14, 2 mg once daily oral, adolescents 13-17 yrs, ADHD patients, N = 14, read-out: Tmax): 4.53 h; AUC(0-t) ([1]; po, 2 mg, Day 14, 2 mg once daily oral, children 6-12 yrs, ADHD patients, N = 14, read-out: AUC0-24): 70 ± 28.3 ng·h/mL; Cmax ([1]; po, 2 mg, Day 14, 2 mg once daily oral, children 6-12 yrs, ADHD patients, N = 14, read-out: Cmax): 4.39 ± 1.66 ng/mL; Tmax ([1]; po, 2 mg, Day 14, 2 mg once daily oral, children 6-12 yrs, ADHD patients, N = 14, read-out: Tmax): 4.98 h; half-life [1, 3]: 1070 ± 346 min; AUC(0-t) ([1]; po, 2 mg, single 2 mg oral dose, Day 1, adolescents 13-17 yrs, ADHD patients, N = 14, read-out: AUC0-t): 42.7 ± 12.9 ng·h/mL; AUC(0-inf) ([1]; po, 2 mg, single 2 mg oral dose, Day 1, adolescents 13-17 yrs, ADHD patients, N = 14, read-out: AUC0-∞): 47.3 ± 13.7 ng·h/mL; Cmax ([1]; po, 2 mg, single 2 mg oral dose, Day 1, adolescents 13-17 yrs, ADHD patients, N = 14, read-out: Cmax): 1.69 ± 0.43 ng/mL; Tmax ([1]; po, 2 mg, single 2 mg oral dose, Day 1, adolescents 13-17 yrs, ADHD patients, N = 14, read-out: Tmax): 4.96 h; Vd/F [1, 3]: 1240 L; half-life [1, 4]: 864 ± 143 min; AUC(0-t) ([1]; po, 2 mg, single 2 mg oral dose, Day 1, children 6-12 yrs, ADHD patients, N = 14, read-out: AUC0-t): 56.9 ± 22 ng·h/mL; AUC(0-inf) ([1]; po, 2 mg, single 2 mg oral dose, Day 1, children 6-12 yrs, ADHD patients, N = 14, read-out: AUC0-∞): 65.2 ± 23.9 ng·h/mL; Cmax ([1]; po, 2 mg, single 2 mg oral dose, Day 1, children 6-12 yrs, ADHD patients, N = 14, read-out: Cmax): 2.55 ± 1.03 ng/mL; Tmax ([1]; po, 2 mg, single 2 mg oral dose, Day 1, children 6-12 yrs, ADHD patients, N = 14, read-out: Tmax): 4.98 h; Vd/F [1, 4]: 766 ± 380 L; AUC(0-t) ([1]; po, 4 mg, Day 28, 4 mg once daily oral, adolescents 13-17 yrs, ADHD patients, N = 14, read-out: AUC0-24): 117 ± 28.4 ng·h/mL; Cmax ([1]; po, 4 mg, Day 28, 4 mg once daily oral, adolescents 13-17 yrs, ADHD patients, N = 14, read-out: Cmax): 7.01 ± 1.53 ng/mL; Tmax ([1]; po, 4 mg, Day 28, 4 mg once daily oral, adolescents 13-17 yrs, ADHD patients, N = 14, read-out: Tmax): 4.97 h; AUC(0-t) ([1]; po, 4 mg, Day 28, 4 mg once daily oral, children 6-12 yrs, ADHD patients, N = 14, read-out: AUC0-24): 162 ± 116 ng·h/mL; Cmax ([1]; po, 4 mg, Day 28, 4 mg once daily oral, children 6-12 yrs, ADHD patients, N = 14, read-out: Cmax): 10.1 ± 7.09 ng/mL; Tmax ([1]; po, 4 mg, Day 28, 4 mg once daily oral, children 6-12 yrs, ADHD patients, N = 14, read-out: Tmax): 5.02 h; linearity of pharmacokinetics ([1]; single 2 mg doses and multiple 2 mg and 4 mg doses, children (6-12 years) and adolescent (13-17 years) ADHD patients): linear; CL/F [1, 5]: 815 ± 214 mL/min; λz [1, 5]: 0.0428 ± 0.0153 h⁻¹; CL/F [1, 6]: 612 ± 252 mL/min; λz [1, 6]: 0.0496 ± 0.0093 h⁻¹; AUC(0-t) ([2]; human, in vivo, 2.5 mg): ~81.3 ng·h/mL; AUC(0-inf) ([2]; human, in vivo, 2.5 mg, AUC∞): ~85 ng·h/mL; Cmax ([2]; human, in vivo, 2.5 mg, mean Cmax): ~2.49 ng/mL; Tmax ([2]; human, in vivo, 2.5 mg, median Tmax): ~6 h; CL/F ([2]; human, in vivo, po, 2 mg): 612 ± 303 mL/min; AUC(0-inf) ([2]; human, in vivo, po, 2 mg, AUC0-inf): 64.2 ± 22.6 ng·h/mL; AUC(0-t) ([2]; human, in vivo, po, 2 mg): 59.8 ± 20.9 ng·h/mL; Cmax ([2]; human, in vivo, po, 2 mg, Cmax): 1.71 ± 0.56 ng/mL; half-life ([2]; human, in vivo, po, 2 mg, T½): 1060 ± 348 min; Vd/F ([2]; human, in vivo, po, 2 mg): 884 ± 382 L; Tmax ([2]; human, in vivo, po, 2 mg, tmax): 6 h; T½ ([2]; human, in vivo, po, 2.5 mg): 16.7 ± 7.4 h; Vz/F ([2]; human, in vivo, po, 2.5 mg): 809 ± 406 L; AUC(0-inf) ([2]; human, in vivo, po, 2.5 mg, AUC0-inf): 84.5 ± 34.2 ng·h/mL; AUC(0-t) ([2]; human, in vivo, po, 2.5 mg): 77.8 ± 30.4 ng·h/mL; Cmax ([2]; human, in vivo, po, 2.5 mg, Cmax): 2.26 ± 0.67 ng/mL; Tmax ([2]; human, in vivo, po, 2.5 mg, Tmax): 5 h; half-life ([2]; human, in vivo, po, 2.5 mg, T½): 1140 ± 396 min; Vd/F ([2]; human, in vivo, po, 2.5 mg): 915 ± 390 L; half-life ([2]; human, in vivo, t1/2): 1000 ± 444 min; deaths ([2]; single 2 mg and 2.5 mg doses, healthy adults): no deaths
